Earlier results in patent publication US20030212274A1, “Novel amorphous form of omeprazole salts” (priority 2003, published 2003).
Read-outs that look alike come from different tables or passages of the source.

Key:
[1] = storage at +37° C., relative humidity 80%, 6 months (accelerated conditions)

substance converted to degradation products [1]: about 6%
half-life of degradation in water solutions (pH-values less than four): ten
half-life of degradation in water solutions (pH=7): about 14 hours
Compound: COc1ccc2[nH]c([S+]([O-])Cc3ncc(C)c(OC)c3C)nc2c1 (stereo not drawn) [Omeprazole, 5-methoxy-2-[(4-methoxy-3,5-dimethyl-2-pyridinyl)-methyl]sulfinyl-1H-benzimidazole]
